ChEMBL document CHEMBL5360532, “Current scenario of quinolone hybrids with potential antibacterial activity against ESKAPE pathogens” (Eur J Med Chem, 2023)
pIC50: −log10 of the molar value. Converted amounts (≈) assume the structure as drawn.

Assays:
Escherichia coli [1] = test: Antibacterial activity against Escherichia coli ATCC 25922 assessed as bacterial growth inhibition by agar dilution assay; assay type: functional
Staphylococcus aureus [2] = test: Antibacterial activity against Staphylococcus aureus ATCC 6538p assessed as bacterial growth inhibition by agar dilution assay; assay type: functional
Pseudomonas aeruginosa [3] = test: Antibacterial activity against Pseudomonas aeruginosa assessed as bacterial growth inhibition measured after 20 hrs by serial dilution method; assay type: functional
[4] = tested on: Mycobacterium tuberculosis; test: Antimycobacterial activity against multidrug Mycobacterium tuberculosis assessed as bacterial growth inhibition by LJ slant assay; assay type: functional
Staphylococcus aureus [5] = test: Antibacterial activity Staphylococcus aureus ATCC 25923 assessed as bacterial growth inhibition by broth microdilution assay; assay type: functional
Pseudomonas aeruginosa [6] = test: Antibacterial activity against Pseudomonas aeruginosa assessed as bacterial growth inhibition by agar well diffusion assay; assay type: functional, organism-based
Staphylococcus aureus [7] = test: Antibacterial activity against Staphylococcus aureus assessed as zone of inhibition at 50 mg/ml by agar well diffusion assay; assay type: functional; settings: read-out: IZ
[8] = tested on: Mycobacterium tuberculosis; test: Antimycobacterial activity against Mycobacterium tuberculosis H37Rv assessed as bacterial growth inhibition; assay type: functional
Escherichia coli [9] = test: Antibacterial activity against fluoroquinolone Escherichia coli assessed as bacterial growth inhibition by broth microdilution assay; assay type: functional
Escherichia coli [10] = test: Antibacterial activity against Escherichia coli assessed as bacterial growth inhibition by agar well diffusion assay; assay type: functional, organism-based
Klebsiella pneumoniae [11] = test: Antibacterial activity against Klebsiella pneumoniae assessed as bacterial growth inhibition by serial dilution method; assay type: functional
Escherichia coli [12] = test: Antibacterial activity against Escherichia coli ATCC35218 assessed as bacterial growth inhibition measured after 18 to 24 hrs inhibition by broth microdilution assay; assay type: functional; settings: time 18-24 hrs
Enterococcus faecalis [13] = test: Antibacterial activity against Enterococcus faecalis assessed as zone of inhibition at 50 mg/ml by agar well diffusion assay; assay type: functional; settings: read-out: IZ
Pseudomonas aeruginosa [14] = test: Antibacterial activity against Pseudomonas aeruginosa […] assessed as bacterial growth inhibition measured after 18 to 24 hrs inhibition by broth microdilution assay; assay type: functional; settings: time 18-24 hrs
Escherichia coli [15] = test: Antibacterial activity against Escherichia coli ATCC 25922 assessed as zone of inhibition at 50 mg/ml by agar diffusion assay; assay type: functional; settings: read-out: IZ
Klebsiella pneumoniae [16] = test: Antibacterial activity against Klebsiella pneumoniae assessed as zone of inhibition at 250 ug/ml by agar well diffusion assay; assay type: functional; settings: read-out: IZ
Streptococcus pneumoniae = test: Antibacterial activity against Streptococcus pneumoniae assessed as zone of inhibition at 50 mg/ml by agar well diffusion assay; assay type: functional; settings: read-out: IZ
Pseudomonas aeruginosa [17] = test: Antibacterial activity against Pseudomonas aeruginosa ATCC43288 assessed as bacterial growth inhibition measured after 18 to 24 hrs inhibition by broth microdilution assay; assay type: functional; settings: time 18-24 hrs
Acinetobacter baumannii [18] = test: Antibacterial activity against Acinetobacter baumannii assessed as bacterial growth inhibition by broth microdilution assay; assay type: functional
Enterococcus faecalis [19] = test: Antibacterial activity against Enterococcus faecalis assessed as bacterial growth inhibition by broth microdilution assay; assay type: functional
Staphylococcus aureus [20] = test: Antibacterial activity against Staphylococcus aureus assessed as bacterial growth inhibition by agar well diffusion assay; assay type: functional, organism-based
Escherichia coli [21] = test: Antibacterial activity against Escherichia coli assessed as bacterial growth inhibition by serial dilution method; assay type: functional
Staphylococcus aureus [22] = test: Antibacterial activity against Staphylococcus aureus ATCC 25923 assessed as bacterial growth inhibition measured after 16 hrs by broth microdilution assay; assay type: functional
Staphylococcus aureus [23] = test: Antibacterial activity against Staphylococcus aureus assessed as zone of inhibition at 250 ug/ml by agar well diffusion assay; assay type: functional; settings: read-out: IZ
Staphylococcus aureus [24] = test: Antibacterial activity against Staphylococcus aureus assessed as bacterial growth inhibition measured after 20 hrs by serial dilution method; assay type: functional
Pseudomonas aeruginosa [25] = test: Antibacterial activity against Pseudomonas aeruginosa assessed as bacterial growth inhibition by agar cup diffusion assay; assay type: functional
Staphylococcus aureus [26] = test: Antibacterial activity against methicillin resistant Staphylococcus aureus assessed as bacterial growth inhibition by agar cup diffusion assay; assay type: functional
Staphylococcus aureus [27] = test: Antibacterial activity against Staphylococcus aureus assessed as bacterial growth inhibition by agar cup diffusion assay; assay type: functional
Escherichia coli [28] = test: Antibacterial activity against Escherichia coli assessed as zone of inhibition at 50 mg/ml cup plate assay; assay type: functional; settings: read-out: IZ
Klebsiella pneumoniae [29] = test: Antibacterial activity against Klebsiella pneumoniae AUMC B-77 assessed as bacterial growth inhibition by agar cup diffusion method; assay type: functional
Klebsiella pneumoniae [30] = test: Antibacterial activity against Klebsiella pneumoniae assessed as bacterial growth inhibition measured after 20 hrs by serial dilution method; assay type: functional
Acinetobacter baumannii [31] = test: Antibacterial activity against Acinetobacter baumannii assessed as bacterial growth inhibition by serial dilution method; assay type: functional
Staphylococcus aureus [32] = test: Antibacterial activity against methicillin resistant Staphylococcus aureus assessed as bacterial growth inhibition by microdilution assay; assay type: functional
Escherichia coli [33] = test: Antibacterial activity against Escherichia coli MTCC 1687 assessed as bacterial growth inhibition measured after 24 hrs by microdilution assay; assay type: functional
Klebsiella pneumoniae [34] = test: Antibacterial activity against Klebsiella pneumoniae assessed as bacterial growth inhibition by broth microdilution assay; assay type: functional
Escherichia coli [35] = test: Antibacterial activity against Escherichia coli assessed as bacterial growth inhibition by broth microdilution assay; assay type: functional
Staphylococcus aureus [36] = test: Antibacterial activity against Staphylococcus aureus assessed as bacterial growth inhibition measured after 24 hrs by agar cup diffusion assay; assay type: functional
Pseudomonas aeruginosa [37] = test: Antibacterial activity against Pseudomonas aeruginosa assessed as zone of inhibition at 250 ug/ml by agar well diffusion assay; assay type: functional; settings: read-out: IZ
Staphylococcus aureus [38] = test: Antibacterial activity against Staphylococcus aureus assessed as zone of inhibition at 50 mg/ml cup plate assay; assay type: functional; settings: read-out: IZ
[39] = tested on: Mycobacterium tuberculosis; test: Antimycobacterial activity against Mycobacterium tuberculosis H37Rv assessed as bacterial growth inhibition by LJ slant assay; assay type: functional
Escherichia coli [40] = test: Antibacterial activity against Escherichia coli assessed as bacterial growth inhibition by agar cup diffusion assay; assay type: functional
Staphylococcus aureus [41] = test: Antibacterial activity against methicillin resistant Staphylococcus aureus ATCC 12493 assessed as bacterial growth inhibition by broth microdilution assay; assay type: functional
Escherichia coli [42] = test: Antibacterial activity against Escherichia coli assessed as zone of inhibition at 50 mg/ml by agar well diffusion assay; assay type: functional; settings: read-out: IZ
Escherichia coli [43] = test: Antibacterial activity against Escherichia coli assessed as bacterial growth inhibition measured after 20 hrs by serial dilution method; assay type: functional
Staphylococcus aureus [44] = test: Antibacterial activity against Staphylococcus aureus MLS16 MTCC 2940 assessed as bacterial growth inhibition measured after 24 hrs by microdilution assay; assay type: functional
Staphylococcus aureus [45] = test: Antibacterial activity against Staphylococcus aureus AUMC B-73 assessed as bacterial growth inhibition by agar cup diffusion method; assay type: functional
Klebsiella pneumoniae [46] = test: Antibacterial activity against Klebsiella pneumoniae assessed as bacterial growth inhibition by agar cup diffusion assay; assay type: functional
[47] = tested on: Mycobacterium tuberculosis; test: Antimycobacterial activity against extensive drug Mycobacterium tuberculosis assessed as bacterial growth inhibition by LJ slant assay; assay type: functional
Staphylococcus aureus [48] = test: Antibacterial activity against Staphylococcus aureus MTCC 737 assessed as bacterial growth inhibition measured after 24 hrs by microdilution assay; assay type: functional

Cc1cc(N2CCN(c3cc4c(cc3F)c(=O)c(C(=O)O)cn4C3CC3)CC2)nc(Cl)n1
MIC (Escherichia coli [1]): 10.5 µg/mL (≈ 22.9 µM) | MIC (Staphylococcus aureus [2]): 7.4 µg/mL (≈ 16.2 µM)

O=C(O)c1cn(C2CC2)c2cc(N3CCNCC3)c(F)cc2c1=O [CIPROFLOXACIN]
MIC (Pseudomonas aeruginosa [3]): 0.24 µg/mL (≈ 0.724 µM) | MIC [4]: ≥ 2 µg/mL | MIC (Staphylococcus aureus [5]): 4 µg/mL (≈ 12.1 µM) | pIC50 (Pseudomonas aeruginosa [6]): 4.76 | MIC (Pseudomonas aeruginosa [6]): 1.06 µg/mL (≈ 3.2 µM) | zone of inhibition at 50000 µg/mL (Staphylococcus aureus [7]): 33 mm | MIC [8]: 11.2 µg/mL (≈ 34 µM) | MIC (Escherichia coli [9]): 0.72 µg/mL (≈ 2.17 µM) | pIC50 (Escherichia coli [10]): 4.76 | MIC (Escherichia coli [10]): 1.06 µg/mL (≈ 3.2 µM) | MIC (Klebsiella pneumoniae [11]): 0.312 µg/mL (≈ 0.942 µM) | MIC (Escherichia coli [12]): ≤ 0.03 µg/mL | zone of inhibition at 50000 µg/mL (Enterococcus faecalis [13]): 30 mm | MIC (Pseudomonas aeruginosa [14]): ≤ 0.03 µg/mL | zone of inhibition at 50000 µg/mL (Escherichia coli [15]): 26.3 mm | zone of inhibition at 250 µg/mL (Klebsiella pneumoniae [16]): 17 mm | zone of inhibition at 50000 µg/mL (Streptococcus pneumoniae): 30 mm | MIC (Pseudomonas aeruginosa [17]): ≤ 0.03 µg/mL | MIC (Acinetobacter baumannii [18]): 0.004 µg/mL (≈ 0.0121 µM) | MIC (Enterococcus faecalis [19]): 0.72 µg/mL (≈ 2.17 µM) | pIC50 (Staphylococcus aureus [20]): 4.76 | MIC (Staphylococcus aureus [20]): 1.06 µg/mL (≈ 3.2 µM) | MIC (Escherichia coli [21]): 0.312 µg/mL (≈ 0.942 µM) | MIC (Staphylococcus aureus [22]): 0.78 µg/mL (≈ 2.35 µM) | zone of inhibition at 250 µg/mL (Staphylococcus aureus [23]): 17 mm | MIC (Staphylococcus aureus [24]): 0.24 µg/mL (≈ 0.724 µM) | MIC (Pseudomonas aeruginosa [25]): 8.62 µg/mL (≈ 26 µM) | MIC (Staphylococcus aureus [26]): 5.49 µg/mL (≈ 16.6 µM) | MIC (Staphylococcus aureus [27]): 0.5 µg/mL (≈ 1.51 µM) | zone of inhibition at 50000 µg/mL (Escherichia coli [28]): 13 mm | MIC (Klebsiella pneumoniae [29]): 3.6 µg/mL (≈ 10.9 µM) | MIC (Klebsiella pneumoniae [30]): 0.24 µg/mL (≈ 0.724 µM) | MIC (Acinetobacter baumannii [31]): 0.312 µg/mL (≈ 0.942 µM) | MIC (Staphylococcus aureus [32]): 0.5 µg/mL | MIC (Escherichia coli [33]): 4.68 µg/mL (≈ 14.1 µM) | MIC (Klebsiella pneumoniae [34]): 0.004 µg/mL (≈ 0.0121 µM) | MIC (Escherichia coli [35]): 0.195 µg/mL (≈ 0.589 µM) | MIC (Staphylococcus aureus [36]): 3.25 µg/mL (≈ 9.81 µM) | zone of inhibition at 250 µg/mL (Pseudomonas aeruginosa [37]): 17 mm | zone of inhibition at 50000 µg/mL (Staphylococcus aureus [38]): 11 mm | MIC [39]: ≥ 2 µg/mL | MIC (Escherichia coli [40]): 1.9 µg/mL (≈ 5.73 µM) | MIC (Staphylococcus aureus [41]): 0.49 µg/mL (≈ 1.48 µM) | zone of inhibition at 50000 µg/mL (Escherichia coli [42]): 33 mm | MIC (Escherichia coli [43]): 0.24 µg/mL (≈ 0.724 µM) | MIC (Staphylococcus aureus [44]): 4.68 µg/mL (≈ 14.1 µM) | MIC (Staphylococcus aureus [45]): 1.6 µg/mL (≈ 4.83 µM) | MIC (Klebsiella pneumoniae [46]): 1.9 µg/mL (≈ 5.73 µM) | MIC [47]: ≥ 2 µg/mL | MIC (Staphylococcus aureus [48]): 4.68 µg/mL (≈ 14.1 µM)
